Here are results for 19 compounds from ChEMBL document CHEMBL3992492, “Sulfoximines from a Medicinal Chemist's Perspective: Physicochemical and in vitro Parameters Relevant for Drug Discovery” (Eur J Med Chem, 2017).

The nature of data set [1]: physchem. The following applies: octanol/water, pH 10.
Data set [2] can be described thus: in vitro. The following applies: human, liver microsomes.
Description: Half life in human liver microsomes at 1 uM in presence of NADPH by LC-MS/MS method
A short description of data set [3]: in vitro. The settings on record: human, liver microsomes. This is another data set of the same source. Background: Liver microsomes are a subcellular fraction often used to study metabolism.
Data set [4] is described as follows: physchem. The settings on record: acetonitrile/water mixture.
Description: Solubility of the compound in acetonitrile/water mixture at 10 mM measured after 24 by HPLC-UV method
Data set [5] in a line: physchem. The following applies: aqueous.
Data set [6] is described as follows: in vitro. The following applies: PAMPA, pH 7.4. (In general: In PAMPA a lipid-coated filter parts donor from acceptor wells.)
Description: Apparent permeability of the compound at pH 7.4 by PAMPA
Data set [7] in a line: Apparent partition coefficient, log P of the compound in n-octanol/aqueous mixture by potentiometric titration method. Type of data set: physicochemical.
The nature of data set [8]: Drug degradation in pH <1 HCl after 7 days by HPLC method.
A short description of data set [9]: Drug degradation in pH >10 NH3 after 7 days by HPLC method.

Converted amounts (≈) assume the structure as drawn.

Broadly, the logP is the decadic logarithm of the partition coefficient of the neutral form, usually between octanol and water. By half-life is commonly meant the time needed for the level to fall by half in the phase considered. A high value points to slow loss. Usually solubility stands for how much of the substance goes into solution per volume. Usually thermodynamic solubility stands for the concentration in solution at equilibrium with solid. What is called Papp is the rate of passage across a membrane or cell layer, normalised by area and donor concentration. Higher therefore signals fast passage.

`CC(=O)Nc1ccc(C(F)(F)F)cc1` showed a logP in data set [1] of 1.8. In data set [2], this compound displayed a half-life at 1 µM of 1 h. In data set [3], the hepatic extraction ratio at 1 µM was found to be 0.39. For the same compound, the solubility at 10000 µM in data set [4] came out at 10 µg/mL (≈ 49.2 µM). The same compound displayed a thermodynamic solubility in data set [5] of 100 µg/mL (≈ 492 µM). The Papp in [6] came to 6 ×10⁻⁶ cm/s.

For the compound `O=S1(=Nc2ccc(F)cc2)CCCCC1`, the logP in data set [7] is 0.7. Further, the half-life at 1 µM in data set [2] worked out at 2 h. The hepatic extraction ratio at 1 µM in data set [3] was determined as 0.25. In addition, in [4], the solubility at 10000 µM is more than 46 µg/mL. The compound also registered a thermodynamic solubility in [5] of more than 1000 µg/mL. The compound further gave a Papp in [6] of 9.5 ×10⁻⁶ cm/s.

Regarding `O=S1(=Nc2ccccc2Cl)CCCCC1`, the logP in data set [7] came out at 2. The compound also returned a half-life at 1 µM in [2] of 0.467 h. The hepatic extraction ratio at 1 µM in data set [3] is 0.58. The solubility at 10000 µM in data set [4] is more than 50 µg/mL. Besides, the thermodynamic solubility in data set [5] came to 500 µg/mL (≈ 2050 µM). This compound returned a Papp in data set [6] of 12 ×10⁻⁶ cm/s.

On to `C[S+]([O-])c1ccc(C(F)(F)F)cc1` (stereo not drawn), for which the logP in data set [1] is -0.3. In addition, the solubility at 10000 µM in data set [4] is more than 46 µg/mL. Further, in data set [5], the thermodynamic solubility is 11100 µg/mL (≈ 53300 µM).

In turn, `C[S+]([O-])Cc1ccc(C(F)(F)F)cc1` (stereo not drawn) registered a logP in data set [1] of -0.5. The half-life at 1 µM in [2] is 1.83 h. In addition, the hepatic extraction ratio at 1 µM in data set [3] turned out to be 0.25. Besides, in [4], the solubility at 10000 µM was more than 51 µg/mL. In addition, the solubility (thermodynamic) in [5] turned out to be 4300 µg/mL (≈ 19300 µM). Besides, the Papp in data set [6] worked out at 6.3 ×10⁻⁶ cm/s.

In the case of `O=S1(=Nc2ccc(C(F)(F)F)cc2)CCCC1`, in [7], the logP was determined as 2.4. This compound came in with a half-life at 1 µM in data set [2] of 1.83 h. The hepatic extraction ratio at 1 µM in data set [3] is 0.26. In data set [4], the solubility at 10000 µM came to 50 µg/mL (≈ 190 µM). The same compound came in with a solubility (thermodynamic) in data set [5] of 6000 µg/mL (≈ 22800 µM). In addition, the Papp in data set [6] is 8.7 ×10⁻⁶ cm/s.

`CN(c1ccc(C(F)(F)F)cc1)S(C)(=O)=O` registered a logP in data set [1] of 2.5. In addition, in [4], the solubility at 10000 µM was 46 µg/mL (≈ 182 µM). Moreover, the solubility (thermodynamic) in data set [5] was 200 µg/mL (≈ 790 µM).

`CS(=O)(=Nc1ccc(C(F)(F)F)cc1)c1cccnc1` (stereo not drawn): in data set [7], the logP is 2.5. Further, the half-life at 1 µM in data set [2] was more than 2.17 h. The hepatic extraction ratio at 1 µM in data set [3] is less than 0.23. The solubility at 10000 µM in data set [4] came out at 47 µg/mL (≈ 157 µM). The Papp in data set [6] came to 8.4 ×10⁻⁶ cm/s.

`CC(C)(C)NC(=O)c1ccc(C(F)(F)F)cc1` showed a logP in data set [1] of 2.6. Besides, the half-life at 1 µM in data set [2] was more than 2.17 h. The hepatic extraction ratio at 1 µM in [3] is less than 0.23. Moreover, the solubility at 10000 µM in data set [4] was determined as 14 µg/mL (≈ 57.1 µM). The compound further had a thermodynamic solubility in data set [5] of 10 µg/mL (≈ 40.8 µM). The Papp in [6] came to 7.1 ×10⁻⁶ cm/s.

The compound `CNS(C)(=O)=Nc1ccc(C(F)(F)F)cc1` (stereo not drawn) yielded a logP in data set [1] of 1.6. The compound further came in with a half-life at 1 µM in data set [2] of more than 2.17 h. In data set [3], the hepatic extraction ratio at 1 µM was less than 0.23. Moreover, the solubility at 10000 µM in data set [4] was more than 54 µg/mL. Also, the thermodynamic solubility in data set [5] is 800 µg/mL (≈ 3170 µM). Moreover, in [6], the apparent permeability (Papp) amounted to 5 ×10⁻⁶ cm/s.

As to `CC(C)(C)NC(=O)Nc1ccc(C(F)(F)F)cc1`, the log partition coefficient (logP) in data set [1] amounted to 3.4. In data set [2], this compound had a half-life at 1 µM of more than 2.17 h. In addition, the hepatic extraction ratio at 1 µM in [3] is less than 0.23. The solubility at 10000 µM in data set [4] is less than 1 µg/mL. The compound also had a thermodynamic solubility in data set [5] of 20 µg/mL (≈ 76.8 µM). The same compound gave a Papp in data set [6] of 5.1 ×10⁻⁶ cm/s.

In the case of `CS(=O)(=Nc1ccc(C(F)(F)F)cc1)C1CCOCC1` (stereo not drawn), the logP in [7] was found to be 2.5. In data set [2], the half-life at 1 µM is more than 2.17 h. Moreover, in [3], the hepatic extraction ratio at 1 µM is less than 0.23. Also, in [4], the solubility at 10000 µM came out at 46 µg/mL (≈ 150 µM). Further, the Papp in data set [6] is 9.6 ×10⁻⁶ cm/s.

Compound `CC(C)(C)OC(=O)c1ccc(C(F)(F)F)cc1` came in with a logP in [1] of 4.8. Further, the solubility at 10000 µM in [4] worked out at 7 µg/mL (≈ 28.4 µM). The compound also registered a solubility (thermodynamic) in data set [5] of 20 µg/mL (≈ 81.2 µM).

Regarding `CS(C)(=N)=NC(=O)c1ccc(C(F)(F)F)cc1`, the Drug degradation is more than 90% in data set [8] and 34% in data set [9]. In [1], this compound registered a logP of 0.4. The half-life at 1 µM in data set [2] is more than 2.17 h. Also, the hepatic extraction ratio at 1 µM in data set [3] was less than 0.23. In data set [5], the thermodynamic solubility was 8100 µg/mL (≈ 30700 µM). This compound gave a Papp in [6] of 9.2 ×10⁻⁶ cm/s.

Consider `C[S@@](=O)(=Nc1ccc(C(F)(F)F)cc1)c1ccccc1`, for which the logP in [7] was 3.7. For the same compound, the half-life at 1 µM in data set [2] is more than 2.17 h. For the same compound, in data set [3], the hepatic extraction ratio at 1 µM is less than 0.23. The solubility at 10000 µM in [4] amounted to 17 µg/mL (≈ 56.8 µM). The Papp in data set [6] stood at 3.5 ×10⁻⁶ cm/s.

As to `CN=S(=O)(c1ccc(C(F)(F)F)cc1)N(C)C` (stereo not drawn), the Drug degradation in data set [8] was less than 10%; in data set [9] it was 10%. The compound further gave a logP in data set [1] of 1.5. Besides, the half-life at 1 µM in data set [2] is more than 2.17 h. In addition, in [3], the hepatic extraction ratio at 1 µM is less than 0.23. Moreover, the solubility (thermodynamic) in [5] worked out at 1200 µg/mL (≈ 4510 µM). The compound also registered a Papp in data set [6] of 9.5 ×10⁻⁶ cm/s.

With `C[S@](=O)(=Nc1ccc(C(F)(F)F)cc1)c1ccccc1`, the logP in data set [7] worked out at 3.7. In data set [2], this compound showed a half-life at 1 µM of more than 2.17 h. In addition, the hepatic extraction ratio at 1 µM in data set [3] was less than 0.23. Further, the solubility at 10000 µM in [4] turned out to be 20 µg/mL (≈ 66.8 µM). The same compound came in with a Papp in data set [6] of 2.5 ×10⁻⁶ cm/s.

`CS(=O)(=Nc1ccc(C(F)(F)F)cc1)c1ccncc1` (stereo not drawn): the logP in [7] came to 2.6. Besides, the half-life at 1 µM in [2] came to 0.933 h. The hepatic extraction ratio at 1 µM in data set [3] worked out at 0.41. Further, in data set [4], the solubility at 10000 µM was found to be 44 µg/mL (≈ 147 µM). Besides, the Papp in data set [6] was 6.2 ×10⁻⁶ cm/s.

For `CS(=O)(=O)Oc1ccc(C(F)(F)F)cc1`, the logP in [1] stood at 4.3. In data set [5], this compound gave a thermodynamic solubility of 300 µg/mL (≈ 1250 µM).
